Results: ChEMBL document CHEMBL5512688 (J Med Chem, 2024)
pIC50: −log10 of the molar value.

What was measured:
Wee1-like protein kinase [1] = biological target: T1, Wee1-like protein kinase (Homo sapiens, UniProt P30291); assay: Inhibition of human Wee1 (215 to 647 residues) using polyornithine/tyrosine (4:1) as substrate incubated for 5 mins in presence of ATP by micro beta plate reader analysis
A-427 = assay: Antiproliferative activity against human A-427 cells assessed as inhibition of cell growth incubated for 72 hrs by CCK-8 assay; format: functional, cell-based; settings: A-427, 72 h
[2] = Metabolic stability in mouse liver microsome assessed as parent compound remaining measured at 60 mins by LCMS/MS analysis; format: ADME; settings: liver microsomes, read-out: Stability
[3] = AUC (0 to 24 hrs) in ICR mouse at 60 mg/kg, IG measured upto 24 hrs by LC-MS/MS analysis; format: ADME, organism-based; settings: in vivo, po
[4] = Volume of distribution in ICR mouse at 1 mg/kg, iv measured upto 24 hrs by LC-MS/MS analysis; format: ADME, organism-based; settings: in vivo
[5] = Clearance in ICR mouse at 1 mg/kg, iv measured upto 24 hrs by LC-MS/MS analysis; format: ADME, organism-based; settings: in vivo
[6] = Bioavailability in ICR mouse at 60 mg/kg, IG measured upto 24 hrs by LC-MS/MS analysis; format: ADME, organism-based; settings: in vivo, po
[7] = Metabolic stability in human liver microsome assessed as parent compound remaining measured at 60 mins by LCMS/MS analysis; format: ADME; settings: liver microsomes, read-out: Stability
[8] = Half life in ICR mouse at 60 mg/kg, IG measured upto 24 hrs by LC-MS/MS analysis; format: ADME, organism-based; settings: in vivo, po
[9] = AUC (0 to 24 hrs) in ICR mouse at 1 mg/kg, iv measured upto 24 hrs by LC-MS/MS analysis; format: ADME, organism-based; settings: in vivo
[10] = Half life in ICR mouse at 1 mg/kg, iv measured upto 24 hrs by LC-MS/MS analysis; format: ADME, organism-based; settings: in vivo
LoVo = assay: Antiproliferative activity against human LoVo cells assessed as inhibition of cell growth incubated for 72 hrs by CCK-8 method; format: functional, cell-based
Wee1-like protein kinase [11] = biological target: T1, Wee1-like protein kinase; assay: Inhibition of Wee1 in human U2OS cells assessed as reduction in CDK1 phosphorylation measured for 1 hr by Western blot analysis; format: cell-based

T1 sequence (P30291 whole entry, the tested form may be a part): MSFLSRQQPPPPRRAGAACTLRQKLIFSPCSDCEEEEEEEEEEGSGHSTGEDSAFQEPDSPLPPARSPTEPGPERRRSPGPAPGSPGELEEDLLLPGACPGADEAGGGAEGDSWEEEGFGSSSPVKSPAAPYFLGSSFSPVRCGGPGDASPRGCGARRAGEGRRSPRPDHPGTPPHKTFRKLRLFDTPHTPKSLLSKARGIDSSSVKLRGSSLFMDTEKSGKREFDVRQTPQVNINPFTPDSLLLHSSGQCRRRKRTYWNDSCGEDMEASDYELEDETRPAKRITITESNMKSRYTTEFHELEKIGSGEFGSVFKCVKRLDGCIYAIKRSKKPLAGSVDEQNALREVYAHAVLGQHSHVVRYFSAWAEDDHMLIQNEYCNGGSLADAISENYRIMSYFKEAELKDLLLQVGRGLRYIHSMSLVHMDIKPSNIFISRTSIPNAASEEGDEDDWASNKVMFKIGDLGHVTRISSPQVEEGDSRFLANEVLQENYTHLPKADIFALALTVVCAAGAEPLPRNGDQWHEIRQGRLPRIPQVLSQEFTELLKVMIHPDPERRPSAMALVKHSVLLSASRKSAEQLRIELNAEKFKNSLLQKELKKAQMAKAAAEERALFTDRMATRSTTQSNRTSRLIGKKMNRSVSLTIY

| Compound | pIC50 (Wee1-like protein kinase [1]) | remaining at 1 h [2] [%] | remaining at 1 h [7] [%] | pIC50 (A-427) | other results |
| --- | --- | --- | --- | --- | --- |
| C=CCn1c(=O)c2cnc(Nc3ccc(N4CCN(C)CC4)cc3)nc2n1-c1cccc(-c2cnn(C)c2)n1 | 8.59 | – | – | 6.21 | – |
| C=CCn1c(=O)c2cnc(Nc3ccc(N4C5CCC4CN(C)C5)cc3)nc2n1-c1cccc(-c2cnccn2)n1 | 8.70 | – | – | 6.22 | – |
| C=CCn1c(=O)c2cnc(Nc3ccc(N4CCN(C)CC4)cc3)nc2n1-c1cccc(-n2nc(C)cc2C)n1 | 8.66 | – | – | 6.02 | – |
| C=CCn1c(=O)c2cnc(Nc3ccc(N4CCN(C)CC4)cc3)nc2n1-c1cccc(-n2cc(C)cn2)n1 | 8.43 | 11.2 | 6.06 | 6.66 | – |
| C=CCn1c(=O)c2cnc(Nc3ccc(N4CCN(C)CC4)cc3)nc2n1-c1cccc(-c2cnn(C(F)F)c2)n1 | 8.60 | – | – | 6.43 | – |
| C=CCn1c(=O)c2cnc(Nc3ccc(N4C[C@@H](C)N[C@@H](C)C4)cc3)nc2n1-c1cccc(-c2cccnn2)n1 | 8.68 | 87.1 | 74.1 | 6.62 | AUC(0-t) at 24 h [3]: 20.8 ng·h/mL; Vd [4]: 20.3 L/kg; clearance [5]: 178 mL/min/kg; bioavailability [6]: 0.4%; AUC(0-t) at 24 h [9]: 86.7 ng·h/mL; half-life [10]: 1.56 h |
| C=CCn1c(=O)c2cnc(Nc3ccc(N4CCN(C)CC4)cc3)nc2n1-c1cccc(-n2cccn2)n1 | 8.62 | 8.82 | 18 | 6.60 | – |
| COCCn1c(=O)c2cnc(Nc3ccc(N4CCN(C)CC4)cc3)nc2n1-c1cccc(-c2cnccn2)n1 | 7.80 | – | – | 6.29 | – |
| C=CCn1c(=O)c2cnc(Nc3ccc(N4C[C@@H](C)N[C@@H](C)C4)cc3)nc2n1-c1cccc(-c2cnccn2)n1 | 8.77 | 17.8 | 44.1 | 6.63 | – |
| C=CCn1c(=O)c2cnc(Nc3ccc(C4CCN(C)CC4)cc3)nc2n1-c1cccc(-c2cccnn2)n1 | 8.74 | 44.7 | 67 | 6.81 | – |
| C=CCn1c(=O)c2cnc(Nc3ccc(N4CCN(C)CC4)cc3)nc2n1-c1cccc(-n2ccc(C)n2)n1 | 8.39 | – | – | 6.05 | – |
| C=CCn1c(=O)c2cnc(Nc3ccc(N4CCN(C)CC4)c(OC)c3)nc2n1-c1cccc(-c2cccnn2)n1 | 8.60 | 53.1 | 34.8 | 6.64 | – |
| C=CCn1c(=O)c2cnc(Nc3ccc4c(c3)CN(C)CC4)nc2n1-c1cccc(-c2cccnn2)n1 | 8.64 | 39.4 | 42.2 | 6.61 | – |
| CC(C)n1c(=O)c2cnc(Nc3ccc(N4CCN(C)CC4)cc3)nc2n1-c1cccc(-c2cnccn2)n1 | 8.47 | – | – | 5.85 | – |
| C=CCn1c(=O)c2cnc(Nc3ccc(N4CCN(C)CC4)cc3)nc2n1-c1ccc2ccccc2n1 | 8.66 | – | – | 6.02 | – |
| C=CCn1c(=O)c2cnc(Nc3ccc(N4CCN(C)CC4)cc3)nc2n1-c1ccc2cnn(C(C)C)c2c1 | 8.62 | – | – | 6.50 | – |
| C=CCn1c(=O)c2cnc(Nc3ccc(N4CCN(CCN(C)C)CC4)cc3)nc2n1-c1cccc(-c2cnccn2)n1 | 8.51 | 56.9 | 67.2 | 6.62 | – |
| C=CCn1c(=O)c2cnc(Nc3ccc(N4CCN(C)CC4)cc3)nc2n1-c1cc(-c2cnccn2)ccn1 | 7.90 | – | – | 5.45 | – |
| C=CCn1c(=O)c2cnc(Nc3ccc(N4CCN(C)CC4)cc3)nc2n1-c1cccc(-n2cnc(C)c2)n1 | 8.42 | 18.6 | 7.35 | 6.46 | – |
| C=CCn1c(=O)c2cnc(Nc3ccc(N4C[C@H]5C[C@@H]4CN5C)cc3)nc2n1-c1cccc(-c2cnccn2)n1 | 8.64 | 40.5 | 73.5 | 6.65 | – |
| CN1CCN(c2ccc(Nc3ncc4c(=O)n(CC5CC5)n(-c5cccc(-c6cnccn6)n5)c4n3)cc2)CC1 | 7.48 | – | – | 5.73 | – |
| C=CCn1c(=O)c2cnc(Nc3ccc(N4C5CCC4CN(C)C5)cc3)nc2n1-c1cccc(-c2cccnn2)n1 | 8.52 | 23.8 | 28.6 | 6.65 | – |
| C=CCn1c(=O)c2cnc(Nc3ccc(N4CCN(C)CC4)cc3)nc2n1-c1cncc(-c2cnccn2)c1 | 7.87 | – | – | 5.38 | – |
| C=CCn1c(=O)c2cnc(Nc3ccc(N4CCN(C)CC4)cc3)nc2n1-c1cccc(-n2cc(F)cn2)n1 | 8.35 | 15.9 | 3.89 | 6.48 | – |
| C=CCn1c(=O)c2cnc(Nc3ccc(N4CCN(C)CC4)cc3)nc2n1-c1ccc2ncn(C(C)C)c2c1 | 8.68 | – | – | 6.51 | – |
| C=CCCn1c(=O)c2cnc(Nc3ccc(N4CCN(C)CC4)cc3)nc2n1-c1cccc(-c2cnccn2)n1 | 8.03 | – | – | 5.98 | – |

Continued, in another order:

| pIC50 (Wee1-like protein kinase [1]) | remaining at 1 h [2] [%] | remaining at 1 h [7] [%] | Compound | pIC50 (A-427) | other results |
| --- | --- | --- | --- | --- | --- |
| 8.62 | 83.9 | 51.3 | C=CCn1c(=O)c2cnc(Nc3ccc(N4C[C@@H](C)N[C@@H](C)C4)cc3)nc2n1-c1cccc(-c2ncccn2)n1 | 6.47 | AUC(0-t) at 24 h [3]: 1850 ng·h/mL; Vd [4]: 60.5 L/kg; clearance [5]: 427 mL/min/kg; bioavailability [6]: 87.1%; half-life [8]: 5.42 h; AUC(0-t) at 24 h [9]: 35.5 ng·h/mL; half-life [10]: 1.72 h |
| 8.74 | 18.1 | 29.7 | C=CCn1c(=O)c2cnc(Nc3ccc(N4CCN(C)CC4)cc3)nc2n1-c1cccc(-c2ccc(F)cn2)n1 | 6.49 | – |
| 8.43 | 97.1 | 88.9 | C=CCn1c(=O)c2cnc(Nc3ccc(N4CCC(N5CCN(C)CC5)CC4)cc3)nc2n1-c1cccc(-c2ncccn2)n1 | 6.23 | pIC50 (LoVo): 6.15; AUC(0-t) at 24 h [3]: 32400 ng·h/mL; Vd [4]: 3.72 L/kg; clearance [5]: 16.8 mL/min/kg; bioavailability [6]: 55.1%; pIC50 (Wee1-like protein kinase [11]): 6.04; half-life [8]: 3.71 h; AUC(0-t) at 24 h [9]: 980 ng·h/mL; half-life [10]: 2.39 h |
| 9.05 | 99.1 | 90.9 | C=CCn1c(=O)c2cnc(Nc3ccc(N4CCNCC4)cc3)nc2n1-c1cccc(-c2ncccn2)n1 | 6.49 | AUC(0-t) at 24 h [3]: 235 ng·h/mL; Vd [4]: 5.66 L/kg; clearance [5]: 82 mL/min/kg; bioavailability [6]: 1.96%; AUC(0-t) at 24 h [9]: 199 ng·h/mL; half-life [10]: 1.24 h |
| 8.62 | – | – | C=CCn1c(=O)c2cnc(Nc3ccc(N4CCN(C)CC4)cc3)nc2n1-c1cccc(-c2ncc(C#N)cn2)n1 | 6.47 | – |
| 8.85 | 65.8 | 81 | C=CCn1c(=O)c2cnc(Nc3ccc4c(c3)CNCC4)nc2n1-c1cccc(-c2ncccn2)n1 | 6.55 | – |
| 8.66 | 18.4 | 32.5 | C=CCn1c(=O)c2cnc(Nc3ccc(N4CCN(C)CC4)cc3)nc2n1-c1cccc(-c2cccc(F)n2)n1 | 6.55 | – |
| 8.49 | 48.2 | 49.8 | C=CCn1c(=O)c2cnc(Nc3ccc(N4CCN(C)CC4)cc3)nc2n1-c1cccc(-c2ncc(F)cn2)n1 | 6.34 | – |
| 8.68 | 79.4 | 67.3 | C=CCn1c(=O)c2cnc(Nc3ccc(C4CCN(C)CC4)cc3)nc2n1-c1cccc(-c2ncccn2)n1 | 6.48 | AUC(0-t) at 24 h [3]: 4280 ng·h/mL; Vd [4]: 9.03 L/kg; clearance [5]: 69.5 mL/min/kg; bioavailability [6]: 30.3%; half-life [8]: 3.55 h; AUC(0-t) at 24 h [9]: 236 ng·h/mL; half-life [10]: 1.51 h |
| 8.62 | 13.4 | 30.7 | C=CCn1c(=O)c2cnc(Nc3ccc(N4CCN(C)CC4)cc3)nc2n1-c1cccc(-c2cc(F)ccn2)n1 | 6.62 | – |
| 8.66 | – | – | C=CCn1c(=O)c2cnc(Nc3ccc(N4CCN(C)CC4)cc3)nc2n1-c1cccc(-c2cnc(Cl)cn2)n1 | 6.36 | – |
| 8.70 | 55.1 | 46.5 | C=CCn1c(=O)c2cnc(Nc3ccc(N4CCN(C)CC4)cc3)nc2n1-c1cccc(-c2cccnn2)n1 | 6.69 | AUC(0-t) at 24 h [3]: 4270 ng·h/mL; Vd [4]: 11.7 L/kg; clearance [5]: 88.2 mL/min/kg; bioavailability [6]: 41.9%; half-life [8]: 8.65 h; AUC(0-t) at 24 h [9]: 170 ng·h/mL; half-life [10]: 2.45 h |
| 8.54 | 56 | 71.2 | C=CCn1c(=O)c2cnc(Nc3ccc(N4CCN(CCO)CC4)cc3)nc2n1-c1cccc(-c2cnccn2)n1 | 6.98 | AUC(0-t) at 24 h [3]: 2440 ng·h/mL; Vd [4]: 17 L/kg; clearance [5]: 218 mL/min/kg; bioavailability [6]: 54.9%; half-life [8]: 4.68 h; AUC(0-t) at 24 h [9]: 74.3 ng·h/mL; half-life [10]: 1.3 h |
| 8.51 | 94.7 | 106 | C=CCn1c(=O)c2cnc(Nc3ccc(N4CCN(CCN(C)C)CC4)cc3)nc2n1-c1cccc(-c2ncccn2)n1 | 6.25 | – |
